# Values quoted from earlier work as cited in patent US6641797B2, “Perfluoroalkyl-containing complexes with sugar radicals, process for their production and their use” (Schering Aktiengesellschaft, priority 2000, dated 2003).
# Where “and” joins values, the source holds several entries; their conditions need not be identical. Equal entries are not always repeated.
# How the values were obtained:
# [1] = 39° C., 0.47 T; cited from earlier work
# [2] = 39° C., 0.47 T; cited from earlier work; remark: listed apart in the source
# [3] = in vivo; cited from earlier work
# [4] = tested on: necrotic portion of a tumor; settings: in vivo; cited from earlier work
# infarcted tissue = settings: cited from earlier work
Molecule,T^1-Relaxivity in Water [1] [L/mmol/s],T^1-Relaxivity in Plasma [2] [L/mmol/s],accumulation in the necrotic portion of a tumor [4],also measured
CNC[C@H](O)[C@@H](O)[C@H](O)[C@H](O)CO.O=C([O-])CN1CCN(CC(=O)[O-])CCN(CC(=O)O)CCN(CC(=O)[O-])CC1.[Gd+3] [DOTAREM^(R)],3.5,4.3,–,–
"CNC[C@H](O)[C@@H](O)[C@H](O)[C@H](O)CO.CNC[C@H](O)[C@@H](O)[C@H](O)[C@H](O)CO.O=C([O-])CN(CCN(CC(=O)[O-])CC(=O)O)CCN(CC(=O)[O-])CC(=O)O.[Gd+3] [MAGNEVIST^(R), Gd-DTPA]",3.8,4.8,–,–
"O=S(=O)([O-])c1ccc(-c2c3nc(c(-c4ccc(S(=O)(=O)[O-])cc4)c4ccc([n-]4)c(-c4ccc(S(=O)(=O)[O-])cc4)c4nc(c(-c5ccc(S(=O)(=O)[O-])cc5)c5ccc2[n-]5)C=C4)C=C3)cc1.[Mn+3] [Mn-TPPS, manganese-5,10,15,20-tetrakis(4-sulfonatophenyl)-porphyrin]",–,–,selectively accumulates in the necrotic portion of a tumor,LD50 [3]: approximately 0.5 mmol/kg
CNC(=O)CN(CCN(CCN(CC(=O)[O-])CC(=O)NC)CC(=O)[O-])CC(=O)[O-].[Gd+3] [OMNISCAN^(R)],3.8,4.4,–,–
"C[n+]1ccc(-c2c3nc(c(-c4cc[n+](C)cc4)c4ccc([n-]4)c(-c4cc[n+](C)cc4)c4nc(c(-c5cc[n+](C)cc5)c5ccc2[n-]5)C=C4)C=C3)cc1.[111In+3] [TMPyP, ^111In-5,10,15,20-tetrakis-(4-N-methyl-pyridinium)-porphyrin]",–,–,does not accumulate in the necrotic portion,–
gadolinium-mesoporphyrin [Gd-MP],–,–,–,"ratio of the signal intensities in MRI, infarcted in comparison to healthy tissue (infarcted tissue; kidney and myocardium): 2.10 and 2.19; metal content of infarcted tissue versus non-infarcted, myocardium (infarcted tissue; myocardium (Example 1 of WO 95/31219)): nine times as large"
